# Measured values from patent publication US20250101038A1, “COMPOUNDS” (priority 2021, published 2025).
# Read-outs that look alike come from different tables or passages of the source.
# Key:
# [1] = molecular target: T1, 5-HT2A receptor (Homo sapiens, UniProt P28223); assay: FLIPR Ca2+ flux functional assay, 5-HT2A; format: cell-based
# T1 construct: host or cells: HEK293
# Procedure: Activity at 5-HT2A, 5-HT2B and 5-HT2C receptors was determined using a FLIPR Ca^2+ flux assay at WuXi AppTec Co. Ltd. (Hong Kong) Discovery Biology Unit according to their standard protocols. Briefly, stably transfected cells expressing the receptor of interest (HEK293 for 5-HT2A and 5-HT2C; CHO-K1 for 5-HT2B) were grown and plated in a 384 well plate and incubated at 37° C. and 5% CO2 overnight. A 250 mM stock solution of probenecid in FLIPR calcium assay buffer (10 mL) was freshly prepared and combined with a fluorescent dye (Fluo-4 Direct) to give a final assay concentration of 2.5 mM. Reference compounds were 4-fold serially diluted and the screening compounds were 3-fold serially diluted in 100% DMSO for 10 points using Agilent Bravo, and 750 nL was added to a 384 well compound plate using Echo along with 30 μL assay buffer. The fluorescent dye was then added to the assay plate along with assay buffer to a final volume of […]. The cell plate was incubated for 50 min at 37° C. and 5% CO2 and placed into the FLIPR Tetra along with the compound plate. 10 μL of references and compounds were then transferred from the compound plate into the cell plate and the fluorescent signal was read.
# [2] = molecular target: T2, 5-HT2C receptor (Homo sapiens, UniProt P28335); assay: cell-based
# T2 construct: host or cells: HEK293
# T2 sequence (P28335 33-458): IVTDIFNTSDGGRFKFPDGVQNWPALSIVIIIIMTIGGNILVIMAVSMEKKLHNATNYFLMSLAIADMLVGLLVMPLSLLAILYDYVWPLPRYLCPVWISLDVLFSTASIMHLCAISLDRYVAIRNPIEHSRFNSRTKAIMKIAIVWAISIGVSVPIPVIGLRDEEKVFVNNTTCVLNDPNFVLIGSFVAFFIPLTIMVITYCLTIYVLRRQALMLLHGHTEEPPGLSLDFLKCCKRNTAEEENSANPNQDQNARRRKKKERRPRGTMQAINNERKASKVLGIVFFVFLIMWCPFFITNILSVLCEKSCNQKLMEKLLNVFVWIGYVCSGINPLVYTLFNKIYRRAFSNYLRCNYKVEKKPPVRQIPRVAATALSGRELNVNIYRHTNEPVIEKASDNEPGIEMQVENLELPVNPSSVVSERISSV
# [3] = molecular target: T3, 5-HT2B receptor (Homo sapiens, UniProt P41595); assay: cell-based
# T3 construct: host or cells: CHO-K1
# T3 sequence (P41595 whole entry): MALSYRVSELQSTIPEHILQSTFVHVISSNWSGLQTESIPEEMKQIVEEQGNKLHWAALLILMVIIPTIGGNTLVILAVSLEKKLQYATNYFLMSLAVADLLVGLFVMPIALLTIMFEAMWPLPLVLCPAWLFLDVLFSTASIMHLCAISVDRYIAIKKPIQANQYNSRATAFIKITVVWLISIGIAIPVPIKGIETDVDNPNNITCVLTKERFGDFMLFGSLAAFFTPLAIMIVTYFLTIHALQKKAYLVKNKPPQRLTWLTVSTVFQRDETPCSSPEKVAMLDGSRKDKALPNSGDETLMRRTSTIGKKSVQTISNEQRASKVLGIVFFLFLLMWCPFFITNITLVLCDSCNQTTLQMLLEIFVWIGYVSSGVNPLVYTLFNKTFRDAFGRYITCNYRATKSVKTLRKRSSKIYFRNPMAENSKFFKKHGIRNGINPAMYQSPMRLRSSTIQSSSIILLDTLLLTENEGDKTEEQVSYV
# [4] = agonist activity, Ca2+ flux, HEK293 cells
# [5] = agonist activity, Ca2+ flux, CHO-K1 cells
# [6] = agonist activity, Ca2+ flux, HEK293 cells, read-out: 5-HT2A EC50
# [7] = agonist activity, Ca2+ flux, HEK293 cells, read-out: 5-HT2C EC50
# [8] = agonist activity, Ca2+ flux, CHO-K1 cells, read-out: 5-HT2B EC50
# T1 sequence (P28223 whole entry): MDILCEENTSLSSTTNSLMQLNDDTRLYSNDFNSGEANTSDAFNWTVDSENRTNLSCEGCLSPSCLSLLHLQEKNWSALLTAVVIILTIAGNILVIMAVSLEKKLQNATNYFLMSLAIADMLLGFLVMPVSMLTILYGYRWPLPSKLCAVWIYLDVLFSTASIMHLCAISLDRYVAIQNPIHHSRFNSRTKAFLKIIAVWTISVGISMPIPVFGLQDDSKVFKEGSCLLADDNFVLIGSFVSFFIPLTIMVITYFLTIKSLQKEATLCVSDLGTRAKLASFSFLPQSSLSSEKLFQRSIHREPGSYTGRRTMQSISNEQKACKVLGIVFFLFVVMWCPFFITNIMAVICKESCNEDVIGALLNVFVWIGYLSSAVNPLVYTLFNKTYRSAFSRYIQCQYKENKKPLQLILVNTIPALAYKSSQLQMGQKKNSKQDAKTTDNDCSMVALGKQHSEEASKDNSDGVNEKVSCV
Compound,"Emax [1, 4] [%]","Emax [2, 4] [%]","Emax [3, 5] [%]","EC50 [1, 6] [nM]","EC50 [2, 7] [nM]","EC50 [3, 8] [nM]",EC50 [1] [nM],EC50 [2] [nM],EC50 [3] [nM]
"COc1cc2c(CCN(C)C(C)C)c[nH]c2cc1C [Example P-44, N-(2-(5-methoxy-6-methyl-1H-indol-3-yl)ethyl)-N-methylpropan-2-amine]",72.6,70.8,7.11,–,–,–,–,–,–
"COc1c(F)ccc2[nH]cc(CCN(C)C)c12 [Example P-91, 2-(5-fluoro-4-methoxy-1H-indol-3-yl)-N,N-dimethylethan-1-amine]",74.9,109,4.57,2.33,1.24,> 10000,–,–,–
"CCN(CCc1c[nH]c2cc(F)cc(OC)c12)C(C)C [Example P-99, N-ethyl-N-(2-(6-fluoro-4-methoxy-1H-indol-3-yl)ethyl)propan-2-amine]",81.4,79.3,116,30.7,755,913,–,–,–
"CCCN(CC)CCc1c[nH]c2c(C)cc(OC)cc12 [Example P-55, N-ethyl-N-(2-(5-methoxy-7-methyl-1H-indol-3-yl)ethyl)propan-1-amine]",81.8,57.9,13.2,134,1810,> 10000,–,–,–
"CN(C)CCc1c[nH]c2cc3occc3cc12 [Example P-4, 2-(7H-furo[3,2-f]indol-5-yl)-N,N-dimethylethan-1-amine]",70.4,78.9,4.68,–,–,–,9.39,6.11,> 10000
"CCN(CC)CCc1c[nH]c2ccc3ocnc3c12 [Example P-129, N,N-diethyl-2-(6H-oxazolo[4,5-e]indol-8-yl)ethan-1-amine]",64,93.1,41.1,–,–,–,14.4,72.7,14.9
"Cc1ccc(O)c2c(CCN(C(C)C)C(C)C)c[nH]c12 [Example P-90, 3-(2-(diisopropylamino)ethyl)-7-methyl-1H-indol-4-ol]",95.1,50.2,15.7,817,9970,≥ 10000,–,–,–
"CCCN(C)CCc1c[nH]c2c(C)ccc(O)c12 [Example P-86, 7-methyl-3-(2-(methyl(propyl)amino)ethyl)-1H-indol-4-ol]",66.9,10,-0.14,110,> 10000,≥ 10000,–,–,–
"Cc1nc2c(ccc3[nH]cc(CCN(C(C)C)C(C)C)c32)o1 [Example P-135, N-isopropyl-N-(2-(2-methyl-6H-oxazolo[4,5-e]indol-8-yl)ethyl)propan-2-amine]",78.3,99.2,91.3,25.1,2070,31.4,–,–,–
"COc1c(C)ccc2[nH]cc(CCN(C(C)C)C(C)C)c12 [Example P-63, N-isopropyl-N-(2-(4-methoxy-5-methyl-1H-indol-3-yl)ethyl)propan-2-amine]",72.7,49.4,70.2,1570,9660,2250,–,–,–
"CCN(C)CCc1c[nH]c2ccc3ocnc3c12 [Example P-127, N-ethyl-N-methyl-2-(6H-oxazolo[4,5-e]indol-8-yl)ethan-1-amine]",54,70.5,10.5,–,–,–,12,30.7,> 10000
"COc1cc(F)cc2[nH]cc(CCN(C)C(C)C)c12 [Example P-97, N-(2-(6-fluoro-4-methoxy-1H-indol-3-yl)ethyl)-N-methylpropan-2-amine]",65.4,59.8,14.2,6.76,336,> 10000,–,–,–
"CCN(C)CCc1c[nH]c2cc(F)cc(OC)c12 [Example P-96, N-ethyl-2-(6-fluoro-4-methoxy-1H-indol-3-yl)-N-methylethan-1-amine]",73.6,79.6,19.6,8,60.2,> 10000,–,–,–
"CN(C)CCc1c[nH]c2ccc3oc(=O)[nH]c3c12 [Example P-125, 8-(2-(dimethylamino)ethyl)-1,6-dihydro-2H-oxazolo[4,5-e]indol-2-one]",75.5,56.7,42.5,–,–,–,48.5,538,14.3
"CN(C)CCc1c[nH]c2cc(F)cc(F)c12 [Example P-147, 2-(4,6-difluoro-1H-indol-3-yl)-N,N-dimethylethan-1-amine]",91.6,15.3,15.3,29.2,–,≥ 10000,–,–,–
"Cc1nc2c(ccc3[nH]cc(CCN(C)C)c32)o1 [Example P-131, N,N-dimethyl-2-(2-methyl-6H-oxazolo[4,5-e]indol-8-yl)ethan-1-amine]",97.2,90.1,3.93,–,–,–,10.6,15.8,> 10000
"COc1cc(F)c2[nH]cc(CCN(C)C(C)C)c2c1 [Example P-116, N-(2-(7-fluoro-5-methoxy-1H-indol-3-yl)ethyl)-N-methylpropan-2-amine]",60.2,60.5,23.1,15.7,720,136,–,–,–
"CCCN(CCC)CCc1c[nH]c2c(C)cc(OC)cc12 [Example P-57, N, N-dipropyl-2-(5-methoxy-7-methyl-1H-indol-3-yl)ethan-1-amine]",79.2,30.7,9.45,140,2860,> 10000,–,–,–
"COc1cc(C)c2[nH]cc(CCN(C)C)c2c1 [Example P-50, 2-(5-methoxy-7-methyl-1H-indol-3-yl)-N,N-dimethylethan-1-amine]",66.2,56.4,0.5,64,538,> 10000,–,–,–
"CN(C)CCc1c[nH]c2c(F)c(F)ccc12 [Example P-159, 2-(6,7-difluoro-1H-indol-3-yl)-N,N-dimethylethan-1-amine]",62,99.3,3.79,28.6,36.5,> 10000,–,–,–
"CCN(CCc1c[nH]c2cc(C)c(OC)cc12)C(C)C [Example P-47, N-ethyl-N-(2-(5-methoxy-6-methyl-1H-indol-3-yl)ethyl)propan-2-amine]",64.7,80.8,43.2,–,–,–,–,–,–
"CCN(CC)CCc1c[nH]c2ccc(C)c(OC)c12 [Example P-61, N, N-diethyl-2-(4-methoxy-5-methyl-1H-indol-3-yl)ethan-1-amine]",67.7,75.8,46.3,321,444,> 10000,–,–,–
"CCCN(C)CCc1c[nH]c2ccc(C)c(O)c12 [Example P-65, 5-methyl-3-(2-(methyl(propyl)amino)ethyl)-1H-indol-4-ol]",78.8,66.3,6.22,56.1,175,≥ 10000,–,–,–
"CCN(CC)CCc1c[nH]c2c(F)cc(OC)cc12 [Example P-117, N,N-diethyl-2-(7-fluoro-5-methoxy-1H-indol-3-yl)ethan-1-amine]",95.8,81.5,41.2,–,–,–,–,–,–
"CCN(C)CCc1c[nH]c2c(F)ccc(OC)c12 [Example P-102, N-ethyl-2-(7-fluoro-4-methoxy-1H-indol-3-yl)-N-methylethan-1-amine]",60.8,47.5,3.44,15,155,> 10000,–,–,–
"CCN(CC)CCc1c[nH]c2ccc(C)c(O)c12 [Example P-67, 3-(2-(diethylamino)ethyl)-5-methyl-1H-indol-4-ol]",78.3,78.2,11.7,163,922,≥ 10000,–,–,–
"CC(C)N(C)CCc1c[nH]c2c(F)c(F)ccc12 [Example P-161, N-(2-(6,7-difluoro-1H-indol-3-yl)ethyl)-N-methylpropan-2-amine]",48,80.9,1.6,54.8,418,> 10000,–,–,–
